Test results published in PubChem BioAssay (NCI).
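Grown in 96-well plates, cells were treated for 48 hours with each compound at five concentrations. Insufficient inhibition: endpoint recorded as highest concentration tested. TGI denotes the concentration required for complete inhibition of growth.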

Columns and labels:
Experiment in all cases: DTP human tumour cell line panel, 48 h
TK-10 renal = system: TK-10 renal
M19-MEL melanoma = system: M19-MEL melanoma
COLO 205 colon = system: COLO 205 colon
786-0 renal = system: 786-0 renal
SNB-19 CNS = system: SNB-19 CNS
SK-MEL-5 melanoma = system: SK-MEL-5 melanoma
A498 renal = system: A498 renal
SNB-75 CNS = system: SNB-75 CNS
OVCAR-4 ovarian = system: OVCAR-4 ovarian
UO-31 renal = system: UO-31 renal
SF-268 CNS = system: SF-268 CNS
MOLT-4 leukemia = system: MOLT-4 leukemia
RXF 393 renal = system: RXF 393 renal
OVCAR-8 ovarian = system: OVCAR-8 ovarian
NCI-H23 lung = system: NCI-H23 lung
ACHN renal = system: ACHN renal
U251 CNS = system: U251 CNS
SK-MEL-28 melanoma = system: SK-MEL-28 melanoma
CAKI-1 renal = system: CAKI-1 renal
DLD-1 colon = system: DLD-1 colon
SK-MEL-2 melanoma = system: SK-MEL-2 melanoma
NCI-H226 lung = system: NCI-H226 lung
HOP-62 NSCLC = system: HOP-62 NSCLC
SF-295 CNS = system: SF-295 CNS
OVCAR-5 ovarian = system: OVCAR-5 ovarian
UACC-257 melanoma = system: UACC-257 melanoma
SN12C renal = system: SN12C renal
HL-60(TB) leukemia = system: HL-60(TB) leukemia
LOX IMVI melanoma = system: LOX IMVI melanoma
DMS 273 small cell lung = system: DMS 273 small cell lung
OVCAR-3 ovarian = system: OVCAR-3 ovarian
HCT-15 colon = system: HCT-15 colon
RPMI-8226 leukemia = system: RPMI-8226 leukemia
SF-539 CNS = system: SF-539 CNS
NCI-H522 lung = system: NCI-H522 lung
DMS 114 small cell lung = system: DMS 114 small cell lung
NCI-H460 lung = system: NCI-H460 lung
CCRF-CEM leukemia = system: CCRF-CEM leukemia
EKVX NSCLC = system: EKVX NSCLC
A549 NSCLC = system: A549 NSCLC
HCT-116 colon = system: HCT-116 colon
IGROV1 ovarian = system: IGROV1 ovarian
MALME-3M melanoma = system: MALME-3M melanoma
HT29 colon = system: HT29 colon
LXFL 529 NSCLC = system: LXFL 529 NSCLC
M14 melanoma = system: M14 melanoma
HCC-2998 colon = system: HCC-2998 colon
SW-620 colon = system: SW-620 colon
SR leukemia = system: SR leukemia
K-562 leukemia = system: K-562 leukemia
XF 498 CNS = system: XF 498 CNS
KM12 colon = system: KM12 colon
SNB-78 CNS = system: SNB-78 CNS
SK-OV-3 ovarian = system: SK-OV-3 ovarian
KM20L2 colon = system: KM20L2 colon
UACC-62 melanoma = system: UACC-62 melanoma

Measured: TGI

N#CC(/C(=N/N=C(N)N)C(=O)Nc1ccccc1[N+](=O)[O-])c1nc(-c2ccc([N+](=O)[O-])cc2)cs1 (stereo not given)
> 100 µM: TK-10 renal | M19-MEL melanoma | COLO 205 colon | 786-0 renal | SNB-19 CNS | SK-MEL-5 melanoma | A498 renal | SNB-75 CNS | OVCAR-4 ovarian | UO-31 renal | SF-268 CNS | MOLT-4 leukemia | RXF 393 renal | OVCAR-8 ovarian | NCI-H23 lung | ACHN renal | U251 CNS | SK-MEL-28 melanoma | CAKI-1 renal | DLD-1 colon | SK-MEL-2 melanoma | NCI-H226 lung | HOP-62 NSCLC | SF-295 CNS | OVCAR-5 ovarian | UACC-257 melanoma | SN12C renal | HL-60(TB) leukemia | LOX IMVI melanoma | DMS 273 small cell lung | OVCAR-3 ovarian | HCT-15 colon | RPMI-8226 leukemia | SF-539 CNS | NCI-H522 lung | DMS 114 small cell lung | NCI-H460 lung | CCRF-CEM leukemia | EKVX NSCLC | A549 NSCLC | HCT-116 colon | IGROV1 ovarian | MALME-3M melanoma | HT29 colon | LXFL 529 NSCLC | M14 melanoma | HCC-2998 colon | SW-620 colon | SR leukemia | K-562 leukemia | XF 498 CNS | KM12 colon | SNB-78 CNS | SK-OV-3 ovarian | KM20L2 colon | UACC-62 melanoma

N#Cc1c2nc3ccccc3nc2n2ccccc12
> 100 µM: TK-10 renal | M19-MEL melanoma | COLO 205 colon | 786-0 renal | SNB-19 CNS | SK-MEL-5 melanoma | A498 renal | SNB-75 CNS | OVCAR-4 ovarian | UO-31 renal | SF-268 CNS | MOLT-4 leukemia | OVCAR-8 ovarian | NCI-H23 lung | ACHN renal | U251 CNS | SK-MEL-28 melanoma | CAKI-1 renal | DLD-1 colon | SK-MEL-2 melanoma | HOP-62 NSCLC | OVCAR-5 ovarian | UACC-257 melanoma | SN12C renal | HL-60(TB) leukemia | LOX IMVI melanoma | DMS 273 small cell lung | OVCAR-3 ovarian | HCT-15 colon | RPMI-8226 leukemia | SF-539 CNS | NCI-H522 lung | DMS 114 small cell lung | NCI-H460 lung | CCRF-CEM leukemia | EKVX NSCLC | A549 NSCLC | HCT-116 colon | IGROV1 ovarian | MALME-3M melanoma | LXFL 529 NSCLC | M14 melanoma | HCC-2998 colon | SW-620 colon | SR leukemia | K-562 leukemia | XF 498 CNS | KM12 colon | SNB-78 CNS | SK-OV-3 ovarian | KM20L2 colon | UACC-62 melanoma

Oc1c(-c2ccccc2)nc2ccccn12
> 100 µM: TK-10 renal | M19-MEL melanoma | 786-0 renal | SNB-19 CNS | SK-MEL-5 melanoma | A498 renal | SNB-75 CNS | OVCAR-4 ovarian | UO-31 renal | SF-268 CNS | MOLT-4 leukemia | RXF 393 renal | OVCAR-8 ovarian | NCI-H23 lung | ACHN renal | U251 CNS | SK-MEL-28 melanoma | CAKI-1 renal | DLD-1 colon | SK-MEL-2 melanoma | NCI-H226 lung | HOP-62 NSCLC | SF-295 CNS | OVCAR-5 ovarian | UACC-257 melanoma | SN12C renal | HL-60(TB) leukemia | DMS 273 small cell lung | OVCAR-3 ovarian | SF-539 CNS | NCI-H522 lung | DMS 114 small cell lung | NCI-H460 lung | CCRF-CEM leukemia | EKVX NSCLC | A549 NSCLC | HCT-116 colon | IGROV1 ovarian | MALME-3M melanoma | HT29 colon | LXFL 529 NSCLC | M14 melanoma | HCC-2998 colon | SW-620 colon | SR leukemia | K-562 leukemia | XF 498 CNS | KM12 colon | SNB-78 CNS | SK-OV-3 ovarian | KM20L2 colon | UACC-62 melanoma
